# In US8415378B2, “Isoxazol-3(2H)-one analogs as therapeutic agents” (AstraZeneca AB, priority 2009, dated 2013):
# Target: T1, human Glu-plasminogen (Homo sapiens, UniProt P00747)
# T1 construct: human Glu-plasminogen; purchased Chromogenix, Italy
# Experiment: Clot-lysis buffer assay
# Type: biochemical
# Procedure: The assay method used for evaluating biological activity of the compounds according to the invention was Clot-lysis buffer assay.
# Tested substance were added to the reaction mixture in 10% DMSO. Reaction was started by the addition of thrombin.
# Measured according to the Clot-lysis buffer assay described above.
# T1 sequence (P00747 20-810 limits assumed): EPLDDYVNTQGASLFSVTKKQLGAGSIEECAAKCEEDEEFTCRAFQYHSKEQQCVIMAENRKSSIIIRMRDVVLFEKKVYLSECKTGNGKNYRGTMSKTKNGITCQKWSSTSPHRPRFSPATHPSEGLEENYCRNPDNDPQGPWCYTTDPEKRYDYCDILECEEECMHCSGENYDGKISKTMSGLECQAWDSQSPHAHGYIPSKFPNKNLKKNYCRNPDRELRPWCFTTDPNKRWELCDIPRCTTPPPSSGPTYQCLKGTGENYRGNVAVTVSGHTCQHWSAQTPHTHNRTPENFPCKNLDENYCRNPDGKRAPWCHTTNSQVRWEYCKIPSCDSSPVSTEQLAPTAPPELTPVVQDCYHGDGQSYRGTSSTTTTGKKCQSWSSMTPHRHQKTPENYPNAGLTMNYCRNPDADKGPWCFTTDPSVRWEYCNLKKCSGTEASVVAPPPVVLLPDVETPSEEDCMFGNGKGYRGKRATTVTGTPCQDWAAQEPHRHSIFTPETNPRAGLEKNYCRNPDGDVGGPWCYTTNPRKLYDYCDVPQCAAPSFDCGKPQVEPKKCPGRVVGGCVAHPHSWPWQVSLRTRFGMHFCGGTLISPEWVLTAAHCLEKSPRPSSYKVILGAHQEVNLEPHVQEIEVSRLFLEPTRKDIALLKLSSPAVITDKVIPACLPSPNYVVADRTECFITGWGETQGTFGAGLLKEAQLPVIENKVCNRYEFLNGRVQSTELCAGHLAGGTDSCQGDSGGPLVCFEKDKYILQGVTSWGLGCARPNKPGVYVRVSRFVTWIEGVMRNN
row,SMILES,IC50
1,"CC(C)(C[C@@H]1C[C@@H](c2cc(=O)[nH]o2)CCN1)c1ccccc1 [Example 18, 5-((2S,4S)-2-(2-Methyl-2-phenylpropyl)piperidin-4-yl)isoxazol-3(2H)-one]",1.6 µM
2,"O=c1cc([C@H]2CCN[C@@H](c3ccc(C(F)(F)F)cc3)C2)o[nH]1 [Example 33, 5-((2R,4S)-2-(4-(Trifluoromethyl)phenyl)piperidin-4-yl)isoxazol-3(2H)-one]",1.43 µM
3,"O=c1cc([C@H]2CCN[C@@H](c3ccc(Cl)c(F)c3)C2)o[nH]1 [Example 49, 5-((2R,4S)-2-(4-Chloro-3-fluorophenyl)piperidin-4-yl)isoxazol-3(2H)-one]",2 µM
4,"O=c1cc([C@H]2CCN[C@@H](c3ccc(F)c(F)c3)C2)o[nH]1 [Example 23, 5-((2R,4S)-2-(3,4-Difluorophenyl)piperidin-4-yl)isoxazol-3(2H)-one]",1 µM
5,"CC(C)(C[C@H]1C[C@@H](c2cc(=O)[nH]o2)CCN1)c1ccccc1 [Example 19, 5-((2R,4S)-2-(2-Methyl-2-phenylpropyl)piperidin-4-yl)isoxazol-3(2H)-one]",1.6 µM
6,"O=c1cc([C@H]2CCN[C@@H](c3ccc(C(F)(F)F)cc3F)C2)o[nH]1 [Example 73, 5-((2R,4S)-2-(2-Fluoro-4-(trifluoromethyl)phenyl)piperidin-4-yl)isoxazol-3(2H)-one]",1.54 µM
7,"O=c1cc([C@@H]2CCN[C@H](c3ccc(Cl)cc3Cl)C2)o[nH]1 [Example 52, 5-((2S,4R)-2-(2,4-Dichlorophenyl)piperidin-4-yl)isoxazol-3(2H)-one]",1940 µM
8,"O=c1cc([C@H]2CCN[C@@H](c3ccc(Cl)cc3)C2)o[nH]1 [Example 27, 5-((2R,4S)-2-(4-Chlorophenyl)piperidin-4-yl)isoxazol-3(2H)-one]",1.5 µM
9,"CC(C)(C)c1ccc(C[C@@H]2C[C@@H](c3cc(=O)[nH]o3)CCN2)cc1 [Example 11, 5-((2S,4S)-2-(4-tert-Butylbenzyl)piperidin-4-yl)isoxazol-3(2H)-one]",4.3 µM
10,"O=c1cc([C@H]2CCN[C@@H](c3cc(F)c(Cl)c(F)c3)C2)o[nH]1 [Example 65, 5-((2R,4S)-2-(4-Chloro-3,5-difluorophenyl)piperidin-4-yl)isoxazol-3(2H)-one]",2.2 µM
11,"O=c1cc([C@@H]2CCN[C@@H](c3ccc(F)cc3Cl)C2)o[nH]1 (relative stereo) [Example 48, 5-(Trans-2-(2-chloro-4-fluorophenyl)piperidin-4-yl)isoxazol-3(2H)-one]",44.3 µM
12,"O=c1cc([C@H]2CCN[C@@H](c3cc(F)c(F)c(F)c3)C2)o[nH]1 [Example 60, 5-((2R,4S)-2-(3,4,5-Trifluorophenyl)piperidin-4-yl)isoxazol-3(2H)-one]",1.9 µM
13,"O=c1cc([C@H]2CCN[C@@H](c3ccc(F)cc3)C2)o[nH]1 [Example 25, 5-((2R,4S)-2-(4-Fluorophenyl)piperidin-4-yl)isoxazol-3(2H)-one]",2.5 µM
14,"O=c1cc([C@@H]2CCN[C@@H](c3ccc(OC(F)(F)F)cc3F)C2)o[nH]1 (relative stereo) [Example 59, 5-(Trans-2-(2-fluoro-4-(trifluoromethoxy)phenyl)piperidin-4-yl)isoxazol-3(2H)-one]",70.7 µM
15,"O=c1cc([C@@H]2CCN[C@@H](c3ccc(C(F)(F)F)nc3)C2)o[nH]1 (relative stereo) [Example 41, 5-(Trans-2-(6-(trifluoromethyl)pyridin-3-yl)piperidin-4-yl)isoxazol-3(2H)-one]",40.9 µM
16,"O=c1cc([C@@H]2CCN[C@@H](c3cc(F)c(F)c(F)c3)C2)o[nH]1 (relative stereo) [Example 62, 5-(Trans-2-(3,4,5-trifluorophenyl)piperidin-4-yl)isoxazol-3(2H)-one]",7.1 µM
17,"CC(C)(C)c1ccc([C@H]2C[C@@H](c3cc(=O)[nH]o3)CCN2)s1 [Example 42, 5-((2R,4S)-2-(5-tert-Butylthiophen-2-yl)piperidin-4-yl)isoxazol-3(2H)-one]",34.9 µM
18,"O=c1cc([C@H]2CCN[C@@H](c3cc(F)c(F)cc3F)C2)o[nH]1 [Example 63, 5-((2R,4S)-2-(2,4,5-Trifluorophenyl)piperidin-4-yl)isoxazol-3(2H)-one]",3.22 µM
19,"O=c1cc([C@H]2CCN[C@@H](c3cc(F)c(C(F)(F)F)c(F)c3)C2)o[nH]1 [Example 70, 5-((2R,4S)-2-(3,5-Difluoro-4-(trifluoromethyl)phenyl)piperidin-4-yl)isoxazol-3(2H)-one]",2.5 µM

# More lines, now with the values ahead:
row,IC50,SMILES
1,3.6 µM,"O=c1cc([C@@H]2CCN[C@@H](Cc3cc(F)ccc3F)C2)o[nH]1 (relative stereo) [Example 126, 5-(Trans-2-(2,5-difluorobenzyl)piperidin-4-yl)isoxazol-3(2H)-one]"
2,1.8 µM,"O=c1cc([C@@H]2CCN[C@@H](Cc3ccc(C(F)(F)F)c(F)c3)C2)o[nH]1 (relative stereo) [Example 142, 5-(Trans-2-(3-fluoro-4-(trifluoromethyl)benzyl)piperidin-4-yl)isoxazol-3(2H)-one]"
3,1.5 µM,"O=c1cc([C@H]2CCN[C@@H](CC3CCC(F)(F)CC3)C2)o[nH]1 [Example 89, 5-((2S,4S)-2-((4,4-Difluorocyclohexyl)methyl)piperidin-4-yl)isoxazol-3(2H)-one]"
4,2.2 µM,"O=c1cc([C@H]2CCN[C@H](Cc3cc(F)cc(F)c3)C2)o[nH]1 [Example 132, 5-((2S,4S)-2-(3,5-Difluorobenzyl)piperidin-4-yl)isoxazol-3(2H)-one]"
5,1.7 µM,"O=c1cc([C@H]2CCN[C@@H](COC3CCCCC3)C2)o[nH]1 [Example 84, 5-((2R,4S)-2-(Cyclohexyloxymethyl)piperidin-4-yl)isoxazol-3(2H)-one]"
6,92.9 µM,"O=c1cc([C@@H]2CCN[C@H](Cc3cc(F)ccc3F)C2)o[nH]1 [Example 125, 5-((2S,4R)-2-(2,5-Difluorobenzyl)piperidin-4-yl)isoxazol-3(2H)-one]"
7,1.4 µM,"O=c1cc([C@H]2CCN[C@@H](Cc3c(F)cccc3F)C2)o[nH]1 [Example 127, 5-((2R,4S)-2-(2,6-Difluorobenzyl)piperidin-4-yl)isoxazol-3(2H)-one]"
8,31.4 µM,"O=c1cc([C@@H]2CCN[C@H](Cc3c(F)cccc3F)C2)o[nH]1 [Example 128, 5-((2S,4R)-2-(2,6-Difluorobenzyl)piperidin-4-yl)isoxazol-3(2H)-one]"
9,0.85 µM,"O=c1cc([C@H]2CCN[C@@H](Cc3ccc(F)cc3F)C2)o[nH]1 [Example 134, 5-((2R,4S)-2-(2,4-Difluorobenzyl)piperidin-4-yl)isoxazol-3(2H)-one]"
10,42 µM,"Cn1nnnc1[C@H]1C[C@@H](c2cc(=O)[nH]o2)CCN1 [Example 83, 5-((2R,4S)-2-(1-Methyl-1H-tetrazol-5-yl)piperidin-4-yl)isoxazol-3(2H)-one]"
11,1.1 µM,"O=c1cc([C@H]2CCN[C@@H](Cc3ccc(OC(F)(F)F)cc3)C2)o[nH]1 [Example 113, 5-((2R,4S)-2-(4-(Trifluoromethoxy)benzyl)piperidin-4-yl)isoxazol-3(2H)-one]"
12,3.3 µM,"O=c1cc([C@H]2CCN[C@@H](C3CCCCC3)C2)o[nH]1 [Example 79, 5-((2R,4S)-2-Cyclohexylpiperidin-4-yl)isoxazol-3(2H)-one]"
13,128 µM,"O=c1cc([C@@H]2CCN[C@H](Cc3cc(F)cc(F)c3)C2)o[nH]1 [Example 131, 5-((2S,4R)-2-(3,5-Difluorobenzyl)piperidin-4-yl)isoxazol-3(2H)-one]"
14,31.2 µM,"O=c1cc([C@@H]2CCN[C@@H](C(F)F)C2)o[nH]1 (relative stereo) [Example 88, 5-(Trans-2-(difluoromethyl)piperidin-4-yl)isoxazol-3(2H)-one]"
15,173 µM,"O=c1cc([C@@H]2CCN[C@H](COC3CCCCC3)C2)o[nH]1 [Example 85, 5-((2S,4R)-2-(Cyclohexyloxymethyl)piperidin-4-yl)isoxazol-3(2H)-one]"
16,44.6 µM,"CC(C)(C)c1cc(C[C@@H]2C[C@H](c3cc(=O)[nH]o3)CCN2)cc(C(C)(C)C)c1 [Example 147, 5-((2S,4R)-2-(3,5-Di-tert-butylbenzyl)piperidin-4-yl)isoxazol-3(2H)-one]"
17,1.6 µM,"Cn1nnc([C@H]2C[C@@H](c3cc(=O)[nH]o3)CCN2)n1 [Example 81, 5-((2R,4S)-2-(2-Methyl-2H-tetrazol-5-yl)piperidin-4-yl)isoxazol-3(2H)-one]"
18,6.5 µM,"O=c1cc([C@@H]2CCN[C@@H](Cc3ccc(OC(F)(F)F)cc3)C2)o[nH]1 (relative stereo) [Example 114, 5-(Trans-2-(4-(trifluoromethoxy)benzyl)piperidin-4-yl)isoxazol-3(2H)-one]"
19,123 µM,"O=c1cc([C@@H]2CCN[C@H](Cc3cc(F)cc(C(F)(F)F)c3)C2)o[nH]1 [Example 138, 5-((2S,4R)-2-(3-Fluoro-5-(trifluoromethyl)benzyl)piperidin-4-yl)isoxazol-3(2H)-one]"
20,1.2 µM,"O=c1cc([C@H]2CCN[C@@H](Cc3cc(F)ccc3F)C2)o[nH]1 [Example 124, 5-((2R,4S)-2-(2,5-Difluorobenzyl)piperidin-4-yl)isoxazol-3(2H)-one]"
21,0.8 µM,"CS(=O)(=O)c1ccc(C[C@H]2C[C@@H](c3cc(=O)[nH]o3)CCN2)cc1 [Example 117, 5-((2R,4S)-2-(4-(Methylsulfonyl)benzyl)piperidin-4-yl)isoxazol-3(2H)-one]"
22,88.8 µM,"O=c1cc([C@@H]2CCN[C@@H](Cc3ccc(C(F)(F)F)cc3)C2)o[nH]1 [Example 106, 5-((2R,4R)-2-(4-(Trifluoromethyl)benzyl)piperidin-4-yl)isoxazol-3(2H)-one]"
23,1.1 µM,"O=c1cc([C@H]2CCN[C@@H](CCc3ccc(F)cc3)C2)o[nH]1 [Example 92, 5-((2S,4S)-2-(4-Fluorophenethyl)piperidin-4-yl)isoxazol-3(2H)-one]"
24,31.3 µM,"O=c1cc([C@@H]2CCN[C@H](Cc3ccccc3C(F)(F)F)C2)o[nH]1 [Example 111, 5-((2S,4R)-2-(2-(trifluoromethyl)benzyl)piperidin-4-yl)isoxazol-3(2H)-one]"
